Literature values in US20130028992A1, “Herbal-Based Solution for Treating Symptoms of Nasal Conditions” (priority 2011, published 2013).

How the values were obtained:
[1] = tested on: 25 strains of yeast, bacteria and mold
[2] = tested on: platelet aggregation; conditions: case of a heart attack

## C=CCN=C=S [allyl isothiocyanate]
[1]
  antimicrobial effect of vapor: can combat 25 strains of yeast, bacteria and mold to varying degrees

## CC(=O)Oc1ccccc1C(=O)O [aspirin]
[2]
  time required to take effect: thirty
